Where “and” joins values, the source holds several entries; their conditions need not be identical. Equal values may be shown once.
Legend:
Lysine--tRNA ligase = Lysine--tRNA ligase (Plasmodium falciparum (isolate 3D7), UniProt Q8IDJ8); test: Pf-KRS-1 (Lysyl-RNA Synthetase-1, KRS-1, cytosolic KRS) from Plasmodium falciparum. Inhibitor assay, 384 well plate, luminescence read.; assay type: functional
Histidine--tRNA ligase = molecular target: T1, Histidine--tRNA ligase (Leishmania infantum, UniProt A4I591); test: Leishmania infantum Histidine tRNA synthetase (LdHisRS); assay type: functional
T1 sequence (A4I591 whole entry): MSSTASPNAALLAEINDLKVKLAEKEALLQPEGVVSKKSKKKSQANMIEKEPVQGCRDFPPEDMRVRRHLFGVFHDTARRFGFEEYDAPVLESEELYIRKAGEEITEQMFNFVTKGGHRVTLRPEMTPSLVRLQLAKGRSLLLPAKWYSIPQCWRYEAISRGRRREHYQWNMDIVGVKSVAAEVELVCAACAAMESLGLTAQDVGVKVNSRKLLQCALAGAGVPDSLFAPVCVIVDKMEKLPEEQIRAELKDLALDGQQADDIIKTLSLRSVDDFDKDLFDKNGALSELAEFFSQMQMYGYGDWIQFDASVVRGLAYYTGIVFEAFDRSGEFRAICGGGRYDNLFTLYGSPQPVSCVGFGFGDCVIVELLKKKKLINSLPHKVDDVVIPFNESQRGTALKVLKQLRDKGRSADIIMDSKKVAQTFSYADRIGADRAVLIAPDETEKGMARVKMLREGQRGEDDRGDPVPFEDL

[1] = microbe, parasite or virus in culture; details: Mycobacterium tuberculosis, 72 h, read-out: pIC50 (converted)
[2] = microbe, parasite or virus in culture; details: Mycobacterium tuberculosis, 96 h, read-out: pIC50 (converted)
ClpP1P2 = ClpP1P2 (Mycobacterium tuberculosis (strain ATCC 25618 / H37Rv), UniProt P9WPC3+P9WPC5); test: in vitro assay to detect presence of AMC directly proportional to the activity of ClpP1P2. GHDDI collaboration.; assay type: functional
Tryptophan--tRNA ligase = Tryptophan--tRNA ligase (Mycobacterium tuberculosis (strain ATCC 25618 / H37Rv), UniProt P9WFT3); test: Biochemical assay for Mt-TrpRS; assay type: functional
Plasmodium falciparum = test: Calibr Malaria Delayed Death Assay SOP; assay type: functional, organism-based
Schistosoma mansoni = test: High throughput screening of compounds against Schistosoma mansoni motility; assay type: functional; set-up: dose or concentration left out as unconfirmed

ClpP1P2, sequence (P9WPC5 whole entry): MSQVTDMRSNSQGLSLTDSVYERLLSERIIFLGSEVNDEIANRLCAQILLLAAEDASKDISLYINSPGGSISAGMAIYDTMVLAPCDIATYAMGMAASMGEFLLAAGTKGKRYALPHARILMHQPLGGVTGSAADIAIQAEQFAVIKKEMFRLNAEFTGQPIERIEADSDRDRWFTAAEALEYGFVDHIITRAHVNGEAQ
ClpP1P2, sequence (P9WPC3 whole entry): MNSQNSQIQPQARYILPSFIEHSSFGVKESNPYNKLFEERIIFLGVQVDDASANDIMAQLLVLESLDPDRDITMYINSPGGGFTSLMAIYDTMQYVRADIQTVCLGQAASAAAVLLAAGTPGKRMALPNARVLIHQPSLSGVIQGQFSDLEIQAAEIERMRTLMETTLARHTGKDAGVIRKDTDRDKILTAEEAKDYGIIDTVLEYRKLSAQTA
Lysine--tRNA ligase, sequence (Q8IDJ8 whole entry): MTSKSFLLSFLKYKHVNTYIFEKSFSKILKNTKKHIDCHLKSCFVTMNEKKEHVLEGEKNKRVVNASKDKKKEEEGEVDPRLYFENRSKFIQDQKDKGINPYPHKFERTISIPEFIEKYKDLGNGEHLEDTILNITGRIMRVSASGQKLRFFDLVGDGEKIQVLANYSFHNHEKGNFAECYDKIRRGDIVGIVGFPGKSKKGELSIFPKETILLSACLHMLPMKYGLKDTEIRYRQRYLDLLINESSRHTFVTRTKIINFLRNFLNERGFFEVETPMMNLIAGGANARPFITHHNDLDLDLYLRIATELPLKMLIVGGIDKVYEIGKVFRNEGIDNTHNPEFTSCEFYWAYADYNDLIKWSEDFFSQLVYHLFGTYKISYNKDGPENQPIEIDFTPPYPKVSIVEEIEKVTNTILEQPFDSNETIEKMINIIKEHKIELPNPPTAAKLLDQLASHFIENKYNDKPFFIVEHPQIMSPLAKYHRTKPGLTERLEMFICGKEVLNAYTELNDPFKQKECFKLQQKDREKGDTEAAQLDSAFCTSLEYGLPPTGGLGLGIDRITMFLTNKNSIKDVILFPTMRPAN
Tryptophan--tRNA ligase, sequence (P9WFT3 whole entry): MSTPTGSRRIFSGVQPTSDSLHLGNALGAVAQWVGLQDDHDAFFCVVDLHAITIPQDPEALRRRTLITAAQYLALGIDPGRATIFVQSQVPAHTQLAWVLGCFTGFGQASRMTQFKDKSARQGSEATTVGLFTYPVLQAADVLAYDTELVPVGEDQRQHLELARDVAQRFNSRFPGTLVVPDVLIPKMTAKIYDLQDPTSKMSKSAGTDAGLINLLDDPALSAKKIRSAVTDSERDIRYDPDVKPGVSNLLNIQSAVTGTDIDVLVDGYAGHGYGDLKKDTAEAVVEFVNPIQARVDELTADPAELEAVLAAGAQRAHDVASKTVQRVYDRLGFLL

Compound	IC50 (Lysine--tRNA ligase) [µM]	further results
Cc1cccc(-c2noc(CN3CCc4nn(C)c(=O)cc4C3)n2)c1	> 50.1	IC50 (Histidine--tRNA ligase): 9.38 µM and 11.6 µM
CCn1cc(CNc2ccc3nccnc3c2)cn1	> 50.1	IC50 (Histidine--tRNA ligase): 9.36 µM and 8.25 µM
CC1=C(C#N)C(=O)N(C)C(=O)/C1=C\C1=Cc2ccccc2OC1	> 50.1	IC50 (Histidine--tRNA ligase): 1.12 µM and 1.35 µM and 1.76 µM and 1.15 µM
Cn1cc(Br)cc(NC(=O)CC2CCC2)c1=O	> 50.1	IC50 (Histidine--tRNA ligase): > 100 µM
Cn1nc2c(cc1=O)CN(CC1CCCCO1)CC2 (stereo not given)	> 50.1	IC50 (Histidine--tRNA ligase): 23.7 µM and 25 µM
CC(C)CN1C[C@H]2CCN(C(=O)C3CCCO3)CC[C@H]2S1(=O)=O (stereo not given in full)	> 50.1	IC50 [1]: > 50.1 µM; IC50 [2]: > 50.1 µM
CCCn1nc2c(cc1=O)CN(CCCS(N)(=O)=O)CC2	> 50.1	IC50 (Histidine--tRNA ligase): 31.6 µM and 50.9 µM
Cc1noc(C(C)Nc2ccc3oc(C)nc3c2)n1 (stereo not given)	> 50.1	IC50 (Histidine--tRNA ligase): 23.9 µM and 20.4 µM
CC(C(=O)Nc1ccc(Cl)cn1)N1CCc2nn(C)c(=O)cc2C1 (stereo not given)	> 50.1	IC50 (Histidine--tRNA ligase): 19.9 µM and 23 µM
COc1ncc(-c2c(C#N)c(N)nc3c2CCc2[nH]ccc2-3)cn1	> 50.1	IC50 (Histidine--tRNA ligase): 8.08 µM and 5.62 µM
N#Cc1cc2c(=O)n(CC(O)C(F)(F)F)ccc2[nH]c1=O (stereo not given)	> 50.1	IC50 (ClpP1P2): > 100 µM
O=C(Cc1ccc(F)cc1)N1CCCC(c2n[nH]c3nccnc23)C1 (stereo not given)	> 50.1	IC50 (Tryptophan--tRNA ligase): > 195 µM
Fc1ccc(C2(CNC3=NCCN3)CCCC2)cc1.I	> 50.1	pIC50 (Plasmodium falciparum): 6.191; IC50 (Plasmodium falciparum; Plasmodium falciparum): 0.629 µM
COCCN(Cc1ccc(F)cc1Cl)C(=O)c1ccc(=O)[nH]n1	> 50.1	Percent Effect (Schistosoma mansoni): -14.07%
CC(NC(=O)C1=NN(C)C(=O)CC1)c1ccc(Cl)cc1Cl (stereo not given)	> 50.1	Percent Effect (Schistosoma mansoni): -38.06%
Cc1nc[nH]c1CN1CCn2nc(CN3Cc4ccccc4C3)cc2C1	> 50.1	
Cc1nnc(NC(=O)CN2CCOC(Cn3cccn3)C2)s1 (stereo not given)	> 50.1	
Cc1nc(CN2CCC3(CCCO3)CC2)c2ccccn12	> 50.1	
CN(C)CCO[C@H]1C[C@@H](O)C12CCN(c1nccc3ccccc13)CC2	> 50.1	
CN(C)CCNC(=O)c1ccc(S(=O)(=O)N[C@@H]2CCNC2)cc1	> 50.1	
CCC(Cn1ccc2[nH]c(=O)c(C#N)cc2c1=O)OC (stereo not given)	> 50.1	IC50 (ClpP1P2): > 100 µM

Compound	IC50 (Lysine--tRNA ligase) [µM]	further results
COc1cc(OC)nc(N2CCC3(CC2)OCCCC3O)n1 (stereo not given)	> 50.1	
CN(Cc1cccs1)C1CCC[C@@H]2CN(C(=O)c3cccn3C)C[C@H]12 (stereo not given in full)	> 50.1	
COC(=O)c1ccc2ccn(CC3COCCO3)c(=O)c2c1 (stereo not given)	> 50.1	
O=C(NCC1(O)CCCC1)c1ccc2nsnc2c1	> 50.1	
CC(C)CN1C(=O)C2(CCCC2)NC1c1cn(C)c(=O)n(C)c1=O (stereo not given)	> 50.1	
O=C(NCc1ccc(Cl)s1)c1ccc(N2CCOC2=O)cc1	> 50.1	
Cc1nc(CN(C)C2CCN(Cc3c(C)noc3C)C2)no1 (stereo not given)	> 50.1	
O=C1COc2ccccc2N1CCCn1cnnn1	> 50.1	
O=C(c1nc(=O)[nH][nH]1)N1CCC2(CCCCC2)C1	> 50.1	
CCc1ccc(CN2CCN(C(=O)C(C)C)[C@@H]3CS(=O)(=O)C[C@@H]32)cc1	> 50.1	
Cc1nc(CN2CCCC(CCc3cccc(C(F)(F)F)c3)C2)co1 (stereo not given)	> 50.1	IC50 [1]: 33.3 µM; IC50 [2]: 41.8 µM
CC(C)CN1Cc2nc(N)ncc2C1=O	35.6	
Cn1cc(NC(=O)c2ccccn2)cc(Br)c1=O	> 50.1	
CN1C(=O)CC2(CCN(S(=O)(=O)c3cccs3)CC2)c2ccccc21	> 50.1	
Cc1ccc(CN2C[C@@H]3CN(CC4CCOCC4)CCO[C@@H]3C2)s1	> 50.1	
CCCc1ccc(CN2CCN(c3ncccn3)[C@@H]3CS(=O)(=O)C[C@@H]32)o1	> 50.1	
CN1CC(c2ccccc2)CC12CCN(C(=O)c1cccnc1)CC2 (stereo not given)	> 50.1	
O=C(c1ccccn1)N1CCCN(Cc2nnc(C3CC3)o2)CC1	> 50.1	
COc1ccc(CC(=O)N2CCCC(c3nncn3C)C2)cc1 (stereo not given)	> 50.1	
CSC(C)C(=O)NCc1ccc(-n2cncn2)nc1 (stereo not given)	> 50.1	
CCN(Cc1ccc2c(c1)OCO2)C(=O)NCc1nc(C)cs1	> 50.1	

Compound	IC50 (Lysine--tRNA ligase) [µM]	further results
CC(O)CCn1ccc2[nH]c(=O)c(C#N)cc2c1=O (stereo not given)	> 50.1	IC50 (ClpP1P2): > 100 µM
Cc1nc(C)c(C)c(N(C)CCCc2nccn2C)n1	> 50.1	
Cc1cc(C)n(C2CN(c3ncnc4[nH]ccc34)C2)n1	> 50.1	
CCc1c(C)[nH]c(C(C)(N)CC)nc1=O (stereo not given)	> 50.1	
Cc1cnn(CCNCC(O)COc2ccc(Cl)cc2)c1 (stereo not given)	> 50.1	
Cc1cc(C)c2nc(CN[C@H]3CCCNC3)cc(O)c2c1	> 50.1	
CCOC(=O)C1CCCN(Cc2cc(C#N)n(C)c2C)C1 (stereo not given)	> 50.1	
CCC[C@@H]1CN(Cc2nnc(-c3cccc(F)c3)o2)C[C@H]1NC(C)=O	> 50.1	
O=C(C(O)c1ccccc1Cl)N1CCCN(Cc2cccnc2)CC1 (stereo not given)	> 50.1	
Cn1ncc2c(=O)[nH]c(CN3CCCC3c3cccs3)nc21 (stereo not given)	> 50.1	
CC(C)c1nccn1C1CCCN(C(=O)c2ccc3c(c2)COC3)C1 (stereo not given)	> 50.1	
CN(C)Cc1cnc2n1CCN(C(=O)Cc1ccc(F)cc1)CC2	> 50.1	
COc1cc(CNC(C)Cn2ccnc2)cc2c1OCO2 (stereo not given)	> 50.1	
COCCCN1CCCC12CCN(Cc1cccnc1OC)CC2	> 50.1	
O=C(NCC1(O)CCSCC1)c1ccoc1	> 50.1	
CCOc1ccc(CC(CNC(=O)c2ccoc2C)C(N)=O)cc1 (stereo not given)	> 50.1	
CC1CCC(N2Cc3nc(N)ncc3C2=O)CC1 (stereo not given)	> 50.1	
O=C(c1c[nH]nn1)N1CCCC1C1CCCCC1 (stereo not given)	42.3	
COc1ccc(NC(=O)N2CCCC2c2ccncc2)cn1 (stereo not given)	> 50.1	
O=C(O)c1cc(-c2cc[nH]n2)cc(S(=O)(=O)N2CCCCCC2)c1	> 50.1	
c1cnnc(N2CCCC(NCc3ccncc3)C2)c1 (stereo not given)	> 50.1	

Compound	IC50 (Lysine--tRNA ligase) [µM]	further results
COCCN1CCOCC12CCN(c1ccc(C#N)cc1)CC2	> 50.1	
CC(C)C1CN(C(=O)c2cc(=O)[nH]c(=O)[nH]2)CCCN1CC1CC1 (stereo not given)	> 50.1	
NC(=O)c1csc(N2CCCC(c3n[nH]c(=O)n3-c3ccccc3)C2)n1 (stereo not given)	> 50.1	
O=C(NCCc1ccccn1)C1=NN(c2ccccc2)C(=O)CN1	> 50.1	
CC(C)C(=O)NC1CCN(c2cccc(OC(F)(F)F)c2)C1=O (stereo not given)	> 50.1	
O=C(c1cnccn1)N1C[C@@H](c2ccccc2)[C@@]2(CCNC2=O)C1	> 50.1	
FC(F)(F)CCc1ccnc(NC2CCOC2)n1 (stereo not given)	> 50.1	
Cc1ccc(C)c2c(O)cc(CN[C@H]3CCCCNC3=O)nc12	> 50.1	
O=C(NCc1cccs1)NCC(O)(c1cccs1)C1CC1 (stereo not given)	> 50.1	
O=C(NCC1(O)CCCCC1)c1coc(COc2cccc(F)c2)n1	> 50.1	
Cc1nc(N(C)C)ncc1C(=O)NCCc1csc(-c2cnccn2)n1	> 50.1	
Cc1cc(C)c2nc(CNC3CCCNC3=O)cc(O)c2c1 (stereo not given)	> 50.1	
CCc1nnsc1C(=O)N1CCCN(Cc2ccccc2)CC1	> 50.1	
CN(C)c1cc2c(nn1)CCN(C(=O)C1Cc3ccccc3S1)C2 (stereo not given)	> 50.1	
O=C(Cc1ccsc1)N1CCCC(c2n[nH]c3ncccc23)C1 (stereo not given)	> 50.1	
COc1cc(NC(=O)N(C)Cc2ccc(Br)o2)ncn1	> 50.1	
Cc1cc2ccccc2n1CCC(=O)N1CCC[C@H]1C(N)=O	> 50.1	
Cc1nc(NC(=O)CN2CCOC(Cn3cccn3)C2)sc1C (stereo not given)	> 50.1	
Cc1noc(C2CCCN(C(=O)c3cc(Cl)ccc3F)C2)n1 (stereo not given)	> 50.1	
Cn1cnnc1C1CCCN(C(=O)c2ccc3c(c2)OCCO3)C1 (stereo not given)	> 50.1	
Cc1cnn(CC2CCCN2C(=O)c2cccc3c2OCO3)c1 (stereo not given)	> 50.1	
